16 molecules from patent US20210323914A1, “IONIZABLE CATIONIC LIPID FOR RNA DELIVERY” (Arcturus Therapeutics, Inc., priority 2017, published 2021) can be followed below.

The nature of series [1]: Measured pKa of cationic lipids in LNP or micellar formulations by TNS fluorescence. To be noted: for Δ measured pKa vs ATX-0002: change on shortening the ester; for pKa / (pKa) measured pKa: measured in the Formulation milieu, TNS fluorescence, 1 mM total lipids. It counts as physicochemical. On the procedure: pKa of cationic lipids in LNP or micellar Formulations were measured by the procedure of Jayaraman, 2012, Angew. Chem. Int. Ed., 51:8529-33, hereby incorporated by reference. Lipid micelles or LNPs are diluted to 1 mM total lipids in universal buffer with a pH range between 3 and 12 in presence of 0.06 mg/mL 6-(p-toluidino)-2-naphthalenesulfonic acid sodium salt (TNS) reagent (Sigma Aldrich), a pH sensitive fluorescence probe. The anionic TNS molecule fluoresces when associated with the surface of positively charged membranes but is not fluorescent when free in solution, allowing measurement of pKa. The TNS signal is measured on a spectral plate reader. The TNS signal is plotted as function of the pH and analyzed using a non-linear (Boltzman) to determine the pKa.
Reagents used in the assay include • Hepes free acid, CAS: 7365-45-9 (VWR, 0511-1KG or equivalent) • MES, HPLC grade: (Sigma 105228-100G or equivalent) • Ammonium acetate, HPLC grade: (Sigma 90335-100 mL or equivalent) • Sodium chloride, HPLC grade (VWR EM-MX0475-1 or equivalent) • TNS (Sigma-Aldrich T9792-250 mg or equivalent) • Hydrochloric acid • DMSO • DPBS without calcium and magnesium (GE, SH30028.02 or equivalent) • H2O, HPLC grade (OmniSolv, WX0004-1 or equivalent)
To prepare a stock solution of Universal Buffer (UB) in a polystyrene sterile storage bottle, prepare 1 L using the following table.
Reagents are sterile filtered through a 0.2 μm filter. Preparation of UB solution includes adding 5 mL of 1 M HCl to a 350 mL stock solution.
To prepare a pH ladder, centrifuge tubes (50 mL) with 20 mL UB buffer are used. (pH ˜3) and differing amounts of 2 N NaOH. Stock solutions of TNS at 1 mg/mL in DMSO. 60 μL of TNS at 1 mg/mL is added to 940 μL water to reach a working solution concentration of 0.06 mg/mL. Five test samples, 1 mL of LNP sample in PBS at 1 mM total lipid, and 1 reference sample are analyzed per plate. Samples at different pH values are prepared in wells in which 25 μL of 0.06 mg/mL TNS is added. 15 μL of test samples is added per well. The microplate is incubated for 15 minutes at room temperature in the dark. TNS template can be used to format data from the plate reader. Perform non-linear (Boltzman) regression analysis of the samples in Origin Pro 8 or equivalent software.

Another series has as its system Factor VII. The series is described as follows: In vivo mouse Factor VII siRNA knockdown with lipid nanoparticles. The arrangement: species or system C57BL/6 mice. To be noted: intravenous, 48 hours, mice; for Bioactivity: percentage in vivo Factor VII knockdown: dose 0.03 mg/kg. The text has this: The first pair of numbers denotes the number of carbons in the ester, including the carbonyl, for L1 and L2; the pair of numbers in the parenthesis denotes the number of carbons in each branch of the branched alkyl, R1 or if R2 is also branched, R1/R2 (an asterisk denotes a double bond); the number of carbons in R3 is given; and the last line denotes the substitution for R4 and R5. The ATX number is given for reference herein. Calculated Log D values (c-Log D) and calculated pKa (c-pKa) values are given, as well as measured pKa in parenthesis (measured in the Formulation milieu). The c-Log D and c-pKa values are generated by ACD Labs Structure Designer v12.0. Bioactivity is percentage in vivo Factor VII knockdown at a dose of 0.03 mg/kg, unless otherwise designated.
Using a liver-directed in vivo screen of the liposome libraries, a series of compounds were tested that facilitate high levels of siRNA mediated gene silencing in hepatocytes, the cells comprising the liver parenchyma. Factor VII, a blood-clotting factor, is a suitable target gene for assaying functional siRNA delivery to liver. Because this factor is produced specifically in hepatocytes, gene silencing indicates successful delivery to parenchyma, as opposed to delivery to the cells of the reticulo-endothelial system (e.g., Kupffer cells). Furthermore, Factor VII is a secreted protein that can be readily measured in serum, obviating the need to euthanize animals. Silencing at the mRNA level can be readily determined by measuring levels of protein. This is because the protein's short half-life (2-5 hour). Compositions with siRNA directed to […] were Formulated with the lipid, and comparator sample phosphate-buffered saline (PBS). Female C57BL/6 mice (6-8 week old) were used for FVII siRNA knockdown (KD) experiments.
All Formulations were administered intravenously via tail vein injection at a dose of 0.03 and 0.1 mg/kg at a dosing volume of […]. Terminal blood collection was performed via cardiac puncture under 2% isoflurane at 48 hours after Formulation injections. Blood was collected into 0.109 M citrate buffer tube and processed by centrifugation at 1200 G for 10 min. Plasma was collected and Factor VII protein levels were analyzed by chromogenic assay (Biophen FVII, Aniara Corporation). A standard curve was constructed using samples from PBS-injected mice and relative Factor VII expression was determined by comparing treated groups to untreated PBS control.

Another series relates to mouse epo mRNA. Nature of the series: In vivo EPO mRNA stability after injection of lipid encapsulated mouse epo mRNA. Also noted: species or system Balb/c mice. The settings on record: 0.03 and 0.1 mg/kg intravenous, 6 hours after injection, mice. Here is the method: Levels of mRNA in plasma were measured and compared following injection of nanoparticles comprising different cationic lipids. Female Balb/c mice (6-8 week old) were used for evaluation of plasma erythropoietin (epo) levels in vivo following injection of lipid encapsulated mouse epo mRNA. All Formulations were administered intravenously via tail vein injection at a dose of 0.03 and 0.1 mg/kg at a dosing volume of 5 ml/kg. Terminal blood collection was performed via cardiac puncture under 2% isoflurane at 6 hours after Formulation injections. Blood was collected into 0.109 M citrate buffer tube and processed by centrifugation at 5000 rpm for 10 minutes. Serum was collected and epo mRNA levels were analyzed. Results are shown at FIG. 17.

Values joined by “and” are separate entries in the source; they are usually repeats but may differ in a detail not shown here. Equal values may be shown once.

One may read the pKa as the pH at which an ionisable group is half protonated. Read a high pKa as a group that holds its proton tightly.

Regarding `CCCCCC/C=C\COC(=O)CCCN(CCCC(=O)OC(CCCCCC)CCCCCCC)C(=O)SCCN(C)C` (centres unmarked) [ATX-0058], in series [1], the “Δ measured pKa vs ATX-0002” value is “no impact” and the pKa is 5.95. In addition, the “Factor VII knockdown activity compared with ATX-002 (FIG. 18)” value with Factor VII (both at 0.03 and 0.1 mg/kg) is listed as “substantially more effective than ATX-002”. Also, in the series with Factor VII, the “Bioactivity: percentage in vivo Factor VII knockdown” value (shortened to “Bioactivity: percentage”) amounted to 86 percentage.
For the molecule `CCCCCC/C=C\COC(=O)CN(CC(=O)OC(CCCCCCCC)CCCCCCCC)C(=O)SCCN(C)C` [ATX-0061], in series [1], the “Δ measured pKa vs ATX-0002” value was −0.90 and the pKa was found to be 5.13. Also, the “Bioactivity: percentage” value in the series with Factor VII stood at 0 percentage.
Regarding `CCCCCC/C=C\COC(=O)CN(CC(=O)OC(CCCCC)CCCCC)C(=O)SCCN(C)C` [ATX-0063], in series [1], the “Δ measured pKa vs ATX-0002” value is on record as −0.7 and the pKa was 5.39. In addition, in the series with Factor VII, the “Bioactivity: percentage” value turned out to be 0 percentage.
`CCCCCC/C=C\COC(=O)CN(CC(=O)OC(CCCCCCC)CCCCCCCC)C(=O)SCCN(C)C` (centres unmarked) [ATX-0064]: in series [1], the “Δ measured pKa vs ATX-0002” value is on record as −0.90 and the pKa was determined as 5.14. Moreover, in the series with Factor VII, the “Bioactivity: percentage” value amounted to 0 percentage.
In the case of `CCCCCC/C=C\COC(=O)CCCN(CCCC(=O)OC(CCCCCCC)CCCCCCC)C(=O)SCCN(C)C` [ATX-0081], in the series with mouse epo mRNA, the “epo mRNA levels in serum compared with ATX-0002 (FIG. 17)” value is given as “substantial improvement over ATX-0002”. Moreover, in series [1], the pKa was 6.04. In the series on Factor VII, the “Bioactivity: percentage” value is recorded as 93 percentage.
With `CCCCCC/C=C\COC(=O)CCCCCN(CCC(=O)OC(CCCCCCC)CCCCCCC)C(=O)SCCN(C)C` [ATX-0082], the “epo mRNA levels in serum compared with ATX-0002 (FIG. 17)” value in the series with mouse epo mRNA is “substantial improvement over ATX-0002”.
Regarding `CCCCCC/C=C\COC(=O)CCCCCN(CCCC(=O)OC(CCCCCCC)CCCCCCC)C(=O)SCCN(C)C` [ATX-0083], in the series with mouse epo mRNA, the “epo mRNA levels in serum compared with ATX-0002 (FIG. 17)” value was “substantial improvement over ATX-0002”. The pKa in series [1] turned out to be 5.98. The “Bioactivity: percentage” value with Factor VII is reported as 65 percentage.
As to `CCCCCC/C=C\COC(=O)CCCN(CCCC(=O)OC(CCCCCCCC)CCCCCCCC)C(=O)SCCN(C)C` [ATX-0087], in the series on mouse epo mRNA, the “epo mRNA levels in serum compared with ATX-0002 (FIG. 17)” value is “substantial improvement over ATX-0002”.
With `CCCCCC/C=C\COC(=O)CCCCCCCN(CCCCCCCC(=O)OC(CCCCCC)CCCCCC)C(=O)SCCN(C)C` [ATX-0093], the pKa in series [1] turned out to be 5.79. In addition, in the series with Factor VII, the “Bioactivity: percentage” value was 70 percentage.
In series [1], `CCCCCC/C=C\COC(=O)CCCCCCCN(CCCCCCCC(=O)OC(CCCCCCCC)CCCCCCCC)C(=O)SCCN(C)C` [ATX-0096] had a pKa of 5.59. In addition, in the series with Factor VII, the “Bioactivity: percentage” value stood at 40 percentage.
The corresponding values for `CCCCCC/C=C\COC(=O)CCCCCCCN(CCCCCCCC(=O)OC(CCCCCCC)CCCCCCC)C(=O)SCCN(C)C` [ATX-0097] are 5.89 and 71 percentage.
Taken in the same sequence, the figures for `CCCCCCCC(CCCCCCC)OC(=O)CN(CC(=O)OC(CCCCCCC)CCCCCCC)C(=O)SCCCN(CC)CC` [ATX-0134] were 5.62 and 25 percentage.
For `CCCCCC(CCCCC)OC(=O)CN(CC(=O)OC(CCCCC)CCCCC)C(=O)SCCCN(C)C` [drawing 51], in series [1], the “(pKa) measured pKa” value came out at 6.17 and the pKa amounted to 6.28. For the same molecule, in the series on Factor VII, the “Bioactivity: percentage” value is given as 0 percentage.
As for `CCCCCC(CCCCC)OC(=O)CN(CC(=O)OC(CCCCC)CCCCC)C(=O)SCCCN(C)C` [drawing 52], the “(pKa) measured pKa” value in series [1] is 6.28 and 6.17. For the same molecule, the “Bioactivity: percentage” value in the series on Factor VII came out at 0 percentage.
With `CCCCCC/C=C\COC(=O)CCCN(CCCC(=O)OC(CCCCCCCC)CCCCCCCC)C(=O)SCCN(C)C` [drawing 76], the pKa in series [1] came out at 6.06. Moreover, in the series on Factor VII, the “Bioactivity: percentage” value came out at 80 percentage.
In series [1], `CCCCCC/C=C\COC(=O)CCCCCN(CCC(=O)OC(CCCCCCC)CCCCCCC)C(=O)SCCN(C)C` [drawing 82] came in with a pKa of 5.77. Besides, in the series on Factor VII, the “Bioactivity: percentage” value turned out to be 43 percentage.
